Source: patent US12319655B2, “RAF kinase inhibitors and methods of use thereof” (Deciphera Pharmaceuticals, LLC, priority 2021, dated 2025)

Experiments:
[1] = biological target: B-Raf kinase (SEQ. ID NO: 2) (Homo sapiens (Human), UniProt P15056); experiment: Biochemical Assay for B-Raf (1); conditions: Table J, assay version (1); read-out: BRAF (1) IC50
How it was run: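 Continuous PK/LDH-coupled NADH oxidation assay, A340 read for 6 h at 30° C., with 0.13 nM B-Raf, 30.1 nM MEK substrate and 1 mM ATP in Tris pH 7.5, MgCl2, DTT, detergents, 1% DMSO. Rate taken from 4–5 h window; percent inhibition vs no-compound and known-inhibitor controls; four-parameter fit gives IC50.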

H2405 cells = experiment: H2405 Cell Proliferation Assay (1); assay type: cell-based; conditions: Homo sapiens, NCI-H2405
Method: H2405 Cell Proliferation Assay (1)
(§1) H2405 cells (catalog #CRL-5994) are obtained from the American Type Culture Collect (ATTC, Manassas, VA). Briefly, cells were grown in RPMI 1640 supplemented with 5% characterized fetal bovine serum (Invitrogen, Carlsbad, CA) and 1% Penicillin/Streptomycin/L-Glutamine at 37° C., 5% CO2, and 95% humidity. Cells are expanded until reaching 70-95% confluency at which point they are sub-cultured or harvested for assay use. A serial dilution of test compound is dispensed into a 96-well black clear bottom plate in triplicate. Three thousand cells are added per well in 200 μL complete growth medium in the 96-well plate. Plates are incubated for 67-72 h at 37° C., 5% CO2, and 95% humidity. At the end of the incubation, 40 μL of a 440 μM solution of resazurin (Sigma, St. Louis, MO) in PBS is added to each well of the plate and plates are incubated for an additional 5-6 h at 37° C., 5% CO2, and 95% humidity. Plates are read on a Synergy2 or equivalent reader (Biotek, Winooski VT) using an excitation of 540 nm and an emission of 600 nm. Data is analyzed using Prism software (GraphPad, San Diego, CA) to calculate IC50 values.

A375 cells = experiment: A375 Cell Proliferation Assay (1); assay type: cell-based; conditions: Homo sapiens, A-375
Method: A375 Cell Proliferation Assay (1)
as §1, with “A375 cells” for “H2405 cells”, “(catalog (#CRL-1619)” for “(catalog #CRL-5994)”, “in DMEM High Glucose” for “in RPMI 1640”, “with 10%” for “with 5%”, “triplicate. Two” for “triplicate. Three”, “thousand five hundred” for “thousand”

[2] = biological target: A-Raf kinase (SEQ. ID No: 1) (Homo sapiens (Human), UniProt P10398, Y301D/Y302D); experiment: Biochemical Assay for A-Raf (1); conditions: Table J, assay version (1); read-out: ARAF (1) IC50
How it was run: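 A-Raf Y301D/Y302D at 5.55 nM phosphorylates 30.1 nM MEK with 1 mM ATP in pH 7.5 Tris buffer, 1% DMSO. Activity was read continuously as NADH oxidation at 340 nm in a pyruvate kinase/lactate dehydrogenase coupled system for 6 h at 30 °C. Rates from 4–5 h were converted to percent inhibition, and IC50 came from a four-parameter fit.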

[3] = biological target: C-Raf kinase (SEQ. ID NO: 3) (Homo sapiens (Human), UniProt P04049, Y340D/Y341D); experiment: Biochemical Assay for C-Raf (1); conditions: Table J, assay version (1); read-out: CRAF (1) IC50
How it was run: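 Coupled pyruvate kinase/LDH assay tracking NADH oxidation at 340 nm, with 0.43 nM C-Raf, 30.1 nM MEK and 1 mM ATP in pH 7.5 Tris buffer (15 mM MgCl2, 1% DMSO final). Read continuously for 6 h at 30 °C, rate taken from the 4–5 h window. IC50 from four-parameter fit of percent inhibition.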

Miapaca-2 cells [4] = experiment: MiaPaca-2 Cell Proliferation Assay (1); assay type: cell-based; conditions: Homo sapiens, MIA PaCa-2, single agent, read-out: MiaPaca2 (1) IC50
Method: MiaPaca-2 Cell Proliferation Assay (1)
as §1, with “Miapaca-2 cells” for “H2405 cells”, “(catalog #CRL-1420)” for “(catalog #CRL-5994)”, “in DMEM” for “in RPMI 1640”, “with 10%” for “with 5%”, “Carlsbad, CA), 2.5% New Zealand sourced horse serum” for “Carlsbad, CA)”

WM3928 cells = experiment: WM3928 Cell Proliferation Assay (1); assay type: cell-based
Method: WM3928 Cell Proliferation Assay (1)
WM3928 cells (#WM3928-01-0001) are obtained from Rockland Immunochemicals Inc (Gilbertsville, PA). Briefly, cells were grown in MCDB 153 medium (Sigma, #M7403, St. Louis, MO) supplemented with 20% Leibovitz's L-15 (ThermoFisher #11415-064, Waltham, MA), 2% heat inactivated fetal bovine serum (ThermoFisher, #A3840001, Waltham, MA), 5 μg/mL Insulin (Bovine Pancreas) (Sigma, #I0516, St. Louis, MO), 1.68 mM Calcium Chloride (Sigma, #C-34006, St. Louis, MO) and 1% Penicillin/Streptomycin/L-Glutamine (ThermoFisher #10378016, Waltham, MA) at 37° C., 5% CO2, and 95% humidity. Cells are expanded until reaching 70-95% confluency at which point they are subcultured or harvested for assay use. A serial dilution of test compound is dispensed into a 96-well black clear bottom plate in triplicate. Three thousand cells are added per well in 200 μL complete growth medium in the 96-well plate. Plates are incubated for 67-72 hours at 37° C., 5% CO2, and 95% humidity. At the end of the incubation, 40 μL of a 440 μM solution of resazurin (Sigma, #199303, St. Louis, MO) in PBS is added to each well of the plate and plates are incubated for an additional 6-7 hours at 37° C., 5% CO2, and 95% humidity. Plates are read on a Synergy2 or equivalent reader (Biotek, Winooski VT) using an excitation of 540 nm and an emission of 600 nm. Data is analyzed using Prism software (GraphPad, San Diego, CA) to calculate IC50 values.

Miapaca-2 cells [5] = experiment: MiaPaca-2 Combination Cell proliferation Assay (1) with cobimetinib; assay type: cell-based; conditions: MiaPaca-2 cell proliferation, read-out: MiaPaca-2 Combo (1) IC50
Method: MiaPaca-2 Combination Cell proliferation Assay (1)
Miapaca-2 cells (catalog #CRL-1420) are obtained from the American Type Culture Collect (ATCC, Manassas, VA). Briefly, cells were grown in DMEM supplemented with 10% characterized fetal bovine serum (Invitrogen, Carlsbad, CA), 2.5% New Zealand sourced horse serum and 1% Penicillin/Streptomycin/L-Glutamine at 37° C., 5% CO2, and 95% humidity. Cells are expanded until reaching 70-95% confluency at which point they are subcultured or harvested for assay use. A serial dilution of test compound was dispensed into multiple 96-well black clear bottom plates in triplicate. A serial dilution of complete growth medium containing cobimetinib was prepared at twice the final concentration and 100 μL was dispensed across the test compound titration in triplicate. Three thousand cells are added per well in 100 μL complete growth medium in each 96-well plate. Plates are incubated for 67-72 hours at 37° C., 5% CO2, and 95% humidity. At the end of the incubation, 40 μL of a 440 μM solution of resazurin (Sigma, St. Louis, MO) in PBS is added to each well of the plate and plates are incubated for an additional 5-7 hours at 37° C., 5% CO2, and 95% humidity. Plates are read on a Synergy2 or equivalent reader (Biotek, Winooski VT) using an excitation of 540 nm and an emission of 600 nm. Drug synergy was assessed via BLISS analysis in the Combenefit software (Cancer Research UK Cambridge Institute, Cambridge, UK). Data is analyzed using Prism software (Graphpad, San Diego, CA) to calculate IC50 values. Shifts in test compound IC50 values are reported from top-constrained combination therapy curves.

[6] = biological target: B-Raf (V600E) (SEQ. ID NO: 4) kinase (Homo sapiens (Human), UniProt P15056, V600E); experiment: Biochemical Assay for B-Raf (V600E) (1); conditions: Table J, BRAF V600E, assay version (1); read-out: BRAF VE (1) IC50
How it was run: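 Coupled pyruvate kinase/lactate dehydrogenase assay: 0.03 nM B-Raf V600E, 30.1 nM MEK, 1 mM ATP, pH 7.5 Tris/MgCl2 buffer, 1% DMSO. NADH oxidation followed at 340 nm for 6 h at 30 °C; rate from 3–4 h converted to percent inhibition, IC50 by four-parameter fit.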

A-Raf kinase (SEQ. ID No: 1), sequence (P10398 other isoform, or with tags, fused parts or gaps Y301D (already in the parent)/Y302D (already in the parent)): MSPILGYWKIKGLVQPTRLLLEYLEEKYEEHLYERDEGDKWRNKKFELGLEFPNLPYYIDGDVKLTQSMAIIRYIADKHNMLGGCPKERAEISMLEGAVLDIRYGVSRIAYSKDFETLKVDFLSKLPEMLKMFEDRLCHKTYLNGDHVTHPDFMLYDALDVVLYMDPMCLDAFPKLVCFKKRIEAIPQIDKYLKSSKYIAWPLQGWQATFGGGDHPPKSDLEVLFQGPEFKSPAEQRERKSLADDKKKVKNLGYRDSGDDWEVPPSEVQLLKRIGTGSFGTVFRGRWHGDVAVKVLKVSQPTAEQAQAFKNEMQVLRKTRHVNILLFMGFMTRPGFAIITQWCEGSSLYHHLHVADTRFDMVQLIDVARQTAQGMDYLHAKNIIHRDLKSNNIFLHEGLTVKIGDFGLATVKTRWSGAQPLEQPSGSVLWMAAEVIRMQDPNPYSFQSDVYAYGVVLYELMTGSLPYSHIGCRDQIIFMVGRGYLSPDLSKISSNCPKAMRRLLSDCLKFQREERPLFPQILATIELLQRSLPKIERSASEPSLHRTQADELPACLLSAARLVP
C-Raf kinase (SEQ. ID NO: 3), sequence (P04049 307-648 Y340D/Y341D): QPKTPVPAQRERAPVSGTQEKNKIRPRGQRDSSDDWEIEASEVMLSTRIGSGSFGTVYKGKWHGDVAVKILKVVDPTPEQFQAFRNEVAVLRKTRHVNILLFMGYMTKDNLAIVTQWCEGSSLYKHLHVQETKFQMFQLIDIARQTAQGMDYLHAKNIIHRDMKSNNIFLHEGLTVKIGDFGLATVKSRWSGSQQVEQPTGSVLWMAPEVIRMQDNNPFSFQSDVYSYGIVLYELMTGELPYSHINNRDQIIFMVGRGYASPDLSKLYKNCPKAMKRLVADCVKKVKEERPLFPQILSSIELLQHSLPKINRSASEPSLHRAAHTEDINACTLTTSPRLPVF
B-Raf kinase (SEQ. ID NO: 2), sequence (P15056 416-766): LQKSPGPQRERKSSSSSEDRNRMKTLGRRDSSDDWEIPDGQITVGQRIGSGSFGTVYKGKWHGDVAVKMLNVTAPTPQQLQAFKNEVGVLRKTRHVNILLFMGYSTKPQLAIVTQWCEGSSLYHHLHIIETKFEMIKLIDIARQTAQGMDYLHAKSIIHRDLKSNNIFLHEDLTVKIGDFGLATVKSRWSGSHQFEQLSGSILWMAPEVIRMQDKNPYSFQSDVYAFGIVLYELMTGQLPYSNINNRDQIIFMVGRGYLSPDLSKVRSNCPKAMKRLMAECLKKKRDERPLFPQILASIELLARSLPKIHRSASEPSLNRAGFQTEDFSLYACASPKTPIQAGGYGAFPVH
B-Raf (V600E) (SEQ. ID NO: 4) kinase, sequence (P15056 416-766 V600E): as the sequence (P15056 416-766) above, with V185E counted along it

Row | Structure (SMILES) | IC50 [1] [nM] | IC50 (H2405 cells) [nM] | IC50 (A375 cells) [nM] | IC50 [2] [nM] | IC50 [3] [nM] | IC50 (Miapaca-2 cells [4]) [nM] | IC50 (WM3928 cells) [nM] | IC50 (Miapaca-2 cells [5]) [nM] | IC50 [6] [nM]
1 | Cc1ccc(NC(=O)c2ccnc(C(F)(F)F)c2)cc1-c1cc(-c2ccnc(N)c2)n(C)c(=O)c1 [Example 53] | 500 to 1000 | 1000 to 10000 | 1000 to 10000 | 1000 to 10000 | 100 to 500 | – | – | – | –
2 | Cc1ccc(NC(=O)c2ccnc(C(C)(C)C#N)c2)cc1-c1ccnc(-c2ccncc2)c1 [Example 55] | – | – | 500 to 1000 | 1000 to 10000 | – | 1000 to 10000 | – | – | –
3 | Cc1ccc(NC(=O)c2ccnc(C(F)(F)F)c2)cc1-c1cccc(-c2ccnc(NC(=O)C3CC3)c2)c1 [Example 58] | – | ≤ 100 | 100 to 500 | 1000 to 10000 | – | 1000 to 10000 | 100 to 500 | – | –
4 | Cc1ccc(NC(=O)c2ccnc(C(C)(C)C#N)c2)cc1-c1cccc(-c2cc(NC(=O)C(C)(C)C)ncn2)c1 [Example 210] | 500 to 1000 | – | – | 1000 to 10000 | 500 to 1000 | – | – | 100 to 500 | ≤ 100
5 | CNc1cc(-c2cccc(-c3cc(NC(=O)c4ccnc(C(C)(C)C#N)c4)cnc3C)c2)ncn1 [Example 227] | 100 to 500 | 1000 to 10000 | 1000 to 10000 | 1000 to 10000 | 100 to 500 | – | – | – | –
6 | Cc1ccc(NC(=O)c2cc(C3CC3)n(C)n2)cc1-c1ccnc(-c2ccnc(NC(=O)C3CC3)c2)n1 [Example 236] | – | 100 to 500 | 1000 to 10000 | – | – | 1000 to 10000 | 500 to 1000 | – | –
7 | COC(=O)Nc1cc(-c2cncc(-c3cc(NC(=O)c4ccnc(C(C)(F)F)c4)ccc3C)c2)ncn1 [Example 238] | – | 100 to 500 | ≤ 100 | – | – | 1000 to 10000 | ≤ 100 | 100 to 500 | –
8 | Cc1ccc(NC(=O)c2cnnc(C3CC3)c2)cc1-c1nccc(-c2ccnc(NC(=O)C3CC3)c2)n1 [Example 272] | – | 100 to 500 | 1000 to 10000 | 1000 to 10000 | – | 1000 to 10000 | 100 to 500 | – | –
